From article PMC7041944 (eLife, 2020)
Like-named read-outs stand apart in the source and are kept apart here.

Legend:
[1] = test system: KOR; assay type: cell-based, murine
[2] = test system: MOR; assay type: cell-based, murine
[3] = test system: MOR; assay type: cell-based, murine; remark: listed apart in the source
[4] = test system: KOR; assay type: cell-based, murine; remark: listed apart in the source
[5] = test system: KOR; assay: mGs probe recruitment to KOR (TIR-FM); assay type: cell-based, murine; details: DynA 1 nM - 10 μM; Venus-mGs, HEK293, TIR-FM
Procedure: Live cell image series measuring protein recruitment to the plasma membrane were performed at 37°C using a Nikon Ti-E microscope equipped for through-the-objective TIR-FM with a temperature-, humidity- and CO2-controlled chamber (Okolab), objective heater, perfect focus system, and an Andor DU897 EMCCD camera. Images were obtained with a 100 × 1.49 NA Apo TIRF objective (Nikon) with solid-state lasers of 488, 561 and 647 nm (Keysight Technologies). Before imaging, receptors at the cell surface were labelled with M1 monoclonal FLAG antibody (1:1,000) conjugated to Alexa647 dye for 10 min at 37°C. Cells were then washed and live imaged in HBS imaging solution (Hepes buffered saline (HBS) with 135 mM NaCl, 5 mM KCl, 0.4 mM MgCl2,1.8 mM CaCl2, 20 mM Hepes, 5 mM d-glucose adjusted to pH 7.4 and 300–315 mOsmol/l). Agonists or antagonists were either added by bath application at concentrations indicated in the figure legends or by media perfusion. For the latter, an insert was 3D-printed and placed inside the imaging dish where it left a dead volume of about 300 μL. […]
For probing protein recruitment to the plasma membrane, HEK293 cells co-expressing the cytosolic protein of interest (mGsi, Nb33, or GRK2) and MOR or KOR were imaged using TIR-FM. […] Protein intensity during time lapse series was measured using ImageJ. […]

[6] = test system: KOR; assay type: cell-based, murine; remark: listed apart in the source
[7] = test system: KOR; assay type: cell-based, murine; remark: listed apart in the source
[8] = test system: KOR; assay type: cell-based, murine; remark: listed apart in the source
[9] = target: signal sequence FLAG (ssf)-KOR, murine (kappa opioid receptor) (murine) (UniProt P33534); assay: TIR-FM recruitment of a fluorescent cytosolic protein to the plasma membrane of living cells; HEK293 cells co-expressing the fluorescent cytosolic protein and the receptor; 37 C, HBS imaging solution pH 7.4; agonists added in rising concentrations (1 nM - 10 uM) by bath application or perfusion: DynA, U69, U50, etorphine for KOR; DAMGO, etorphine, morphine, PZM21, MP for MOR; reversed by the antagonists 5'GNTI or naloxone; also with Cmpd101 (30 uM)
UniProt P33534, sequence (P33534 whole entry, the tested form may be a part): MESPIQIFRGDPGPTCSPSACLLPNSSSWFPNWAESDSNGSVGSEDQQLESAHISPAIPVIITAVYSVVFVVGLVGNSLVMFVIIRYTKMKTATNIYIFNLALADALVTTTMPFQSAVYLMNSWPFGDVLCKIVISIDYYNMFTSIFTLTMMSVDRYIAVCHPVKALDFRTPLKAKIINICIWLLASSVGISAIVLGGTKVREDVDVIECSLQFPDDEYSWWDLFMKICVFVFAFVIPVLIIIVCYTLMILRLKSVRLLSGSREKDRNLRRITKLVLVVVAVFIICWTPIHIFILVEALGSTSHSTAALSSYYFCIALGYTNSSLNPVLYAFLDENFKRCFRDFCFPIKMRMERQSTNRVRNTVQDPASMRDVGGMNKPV

Molecule: Cl.Cl.NC(N)=Nc1ccc2[nH]c3c(c2c1)C[C@@]1(O)[C@H]2Cc4ccc(O)c5c4[C@@]1(CCN2CC1CC1)[C@H]3O5 [5’GNTI, GNTI dihydrochloride]
- reversal of DynA-induced mGsi recruitment by KOR antagonist [1]: rapid redistribution of the biosensor back to the cytoplasm

Molecule: CC[C@@H]1CN2CC[C@]3(Nc4cccc(OC)c4C3=O)[C@@H]2C[C@@H]1/C(=C\OC)C(=O)OC [MP, mitragynine pseudoindoxyl]
- Nb33 recruitment by MOR (in words) [2]: without promoting detectable recruitment
- I.A.(Nb33), intrinsic activity (maximal response) ([2]; SEM): 0.04±0.05
- mGsi/Nb33, ratio of intrinsic activities [3]: 7.47
- I.A.(mGsi), intrinsic activity (maximal response) ([3]; SEM): 0.31±0.02

Molecule: C[C@@H](Cc1ccsc1)NC(=O)NC[C@H](Cc1ccc(O)cc1)N(C)C [PZM21]
- I.A.(Nb33), intrinsic activity (maximal response) ([2]; SEM): 0.27±0.05
- mGsi/Nb33, ratio of intrinsic activities [3]: 2.60
- I.A.(mGsi), intrinsic activity (maximal response) ([3]; SEM): 0.70±0.02

Molecule: DAMGO, [D-Ala2, N-Me-Phe4, Gly5-ol]-Enkephalin acetate salt
- I.A.(Nb33), intrinsic activity (maximal response) [2]: 1.00
- I.A.(mGsi), intrinsic activity (maximal response) [3]: 1.00
- mGsi/Nb33, ratio of intrinsic activities [3]: 1

Molecule: Dynorphin A (1–17, DynA)
- I.A.(mGsi), intrinsic activity (maximal response) [1]: 1.00
- mGsi/Nb33, ratio of intrinsic activities [1]: 1
- recruitment of isolated C-terminal PH domain from GRK2 (GRK2-C-tail) [4]: similarly strong recruitment
- mGs recruitment in response to KOR activation [5]: not detectably recruited
- GRK2 accumulation at KOR-containing clusters (in words) [6]: specifically accumulated at the KOR-containing clusters
- GRK2 recruitment in cells pre-exposed to pertussis toxin [7]: significant recruitment response
- I.A.(Nb33), intrinsic activity (maximal response) [8]: 1.00

Molecule: NES-Venus-mGsi (mini-G protein: Ras-like domain of Gs alpha with nine distal C-terminal residues from Gi alpha1) (designed binder)
- maximum recruitment with etorphine, percent of that with DynA [9]: 67%
